Laboratory results from patent publication US12427192B2, “Water soluble adjuvant and composition containing same” (Sumitomo Pharma Co., Ltd., priority 2019, dated 2025).

Key:
[1] = test system: HLA-A*02:01 transgenic mouse; test: Test 6: in vivo adjuvant activity, vaccine c (Peptide SEQ ID No. 6), IFNγ ELISPOT; details: added to vaccine c; 0.4 nmol per body, twice; FIG. 3
Description: Test 6 Evaluation of In Vivo Adjuvant Activity in HLA-A*02:01 Transgenic Mouse
The in vivo adjuvant activity of the compound of Example 1 was evaluated in the following procedure. To a vaccine prepared by mixing Peptide SEQ ID No. 6 prepared in Reference example 6 with Montanide ISA 51 VG (hereinafter, referred to as “vaccine c”) was added the compound prepared in Example 1 to prepare a vaccine. The vaccine was administered to a HLA-A*02:01 transgenic mouse, and the adjuvant activity of the vaccine was evaluated by the method of testing antigen-specific CTL induction. The GLYDGMEHL in Peptide SEQ ID No. 6 corresponds to an antigen peptide derived from an HLA-A*02:01-restricted MAGE-A10 protein.
(§1) The character for inducing CTLs specific to the antigen peptide (SEQ ID No. 6) by vaccine c was evaluated by measuring whether IFNγ can be produced upon stimulation of splenocytes from the mouse with the peptide. In addition, the character for exerting in vivo adjuvant activity by the compound in Example 1 was evaluated by comparing the number of CTLs induced by vaccine c and the number of CTLs induced by the vaccine prepared by adding the compound prepared in Example 1 to vaccine c, and checking presence or absence of the increase on the number.
Specifically, Peptide of SEQ ID No. 6 was dissolved in DMSO, and then diluted with water for injection to concentrations of 0.1 mg/mL. […]

[2] = test system: HLA-A*02:01 transgenic mouse; test: Test 7: in vivo adjuvant activity, vaccine d (Peptide SEQ ID No. 5), IFNγ ELISPOT; details: added to vaccine d; 330 ng per body, once; FIG. 4
Description: Evaluation of In Vivo Adjuvant Activity in HLA-A*02:01 Transgenic Mouse
The in vivo adjuvant activity of the compound of Example 1 was evaluated in the following procedure. To a vaccine prepared by mixing Peptide SEQ ID No. 5 prepared in Reference example 5 with Montanide ISA 51 VG (hereinafter, referred to as “vaccine d”) was added the compound prepared in Example 1 to prepare a vaccine. The vaccine was administered to a HLA-A*02:01 transgenic mouse, and the adjuvant activity of the vaccine was evaluated by the method of testing antigen-specific CTL induction. The VLQELNVTV in Peptide SEQ ID No. 5 corresponds to an antigen peptide derived from an HLA-A*02:01-restricted Proteinase-3 protein.
as §1, with “No. 5)” for “No. 6)”, “vaccine d” for “vaccine c”, “vaccine d,” for “vaccine c,”
Specifically, Peptide of SEQ ID No. 5 was dissolved in DMSO, and then diluted with water for injection to concentrations of 2 mg/mL. […]

`CCCCCNc1nc(N)nc(C)c1Cc1ccc(CN(C)CCOCCOCCOCCOCCO)cc1OC` [Example 1, 1-(4-{[2-amino-4-methyl-6-(pentylamino)pyrimidin-5-yl]methyl}-3-methoxyphenyl)-2-methyl-5,8,11,14-tetraoxa-2-azahexadecan-16-ol·trifluoroacetate] was tested, and the “CTL counts responsive to Peptide SEQ ID No. 6 compared with adding no compound” value [1] was “more” and the “CTL counts responsive to Peptide of SEQ ID No. 5 compared with adding no compound” value [2] was “more”.
